This is an account of results in patent US9695193B2, “Inhibitors of Plasmodium falciparum equilibrative nucleoside transporter type I as anti-parasitic compounds” (The Trustees of Columbia University in the City of New York, priority 2013, dated 2017).

Common to all, as to format: cell-based
One assay addresses T1, PfENT1-HA-CO (Plasmodium falciparum, UniProt Q8IDM6).
T1 construct: HA; expressed in transfected cells; host or cells: fui1Δ yeast (Saccharomyces cerevisiae)
The experiment in a line: Concentration-dependent rescue of PfENT1-HA-CO-expressing fui1Δ yeast from 5-FUrd induced death. The method, then:
In the primary screen the compounds were tested at a concentration of 10 μM. Hits were identified by the growth of fui1Δ yeast expressing PfENT1 and Green Fluorescent Protein (GFP) in the presence of the cytotoxic nucleoside 5-fluorouridine (5-FUrd). 5-FUrd is transported by PfENT1. PfENT1 expressing fui1Δ yeast will only grow in the presence of 125 μM 5-FUrd if a PfENT1 inhibitor blocks the uptake of 5-FUrd into the yeast. Significant yeast growth in the HTS in 384 well plates was determined by two criteria: 1) turbidity as determined by the optical density at 620 nm (OD620) and 2) GFP fluorescence intensity. Positive responses were signal intensities greater than four standard deviations above the mean of the negative growth control wells. Hits had to be positive by both criteria. From the library screen, 171 chemical entities were identified as positive by both criteria (Table 2).
Of the 171 hits from the primary HTS, nine were chosen for more extensive validation using a series of secondary assays. These nine compounds included the top seven hits (HTS rank #1-7 as indicated in Tables 1 and 2), the first hit identified (compound HTS rank #19) and compound HTS rank #13, which was a unique chemical scaffold relative to the other 8 compounds. The secondary assays used to validate the nine selected hits include 1) repeat of the primary HTS using a series of compound concentrations to determine the concentration-response relationship for each compound, 2) testing in an alternative yeast-based assay in purine auxotrophic ade2Δ yeast expressing PfENT1 (described below, FIG. 1 and FIG. 4B), and 3) a Plasmodium falciparum cytotoxicity assay (described below, FIGS. 5A-B.). These assays allowed further confirmation the hits, determining the concentration-response relationships in the yeast-based assays and the concentration dependence of their ability to kill Plasmodium falciparum parasites during growth in in vitro culture. There was a roughly linear correlation between the compounds' IC50s measured in the two yeast-based assays. All nine compounds were tested in the P. falciparum cytotoxicity assay (FIGS. 5A-B).
(§1) The means values from single experiments are shown. In the key, CQ=chloroquine, and the Table 1 compounds are referenced as symbols indicating HTS rank #1-7, 13, and 19. In this assay, inhibitors of PfENT1 […] yeast growth (FIGS. 4B-C).

Assay [1] deals with P. falciparum 3D7 parasites. The assay is described as follows: [3H]adenosine uptake into trophozoite-stage P. falciparum 3D7 parasites. The conditions noted are these: Plasmodium falciparum, uptake over 15 minutes, Mean ± SD, N ≧ 3. The text has this: FIGS. 5A-E are graphs and images reflecting the inhibitory effects of selected PfENT1 inhibiting compounds with P. falciparum. FIGS. 5A-C are graphs illustrating the inhibitory effects of selected PfENT1 inhibiting compounds with P. falciparum.

Another assay has as its target T2, PfENT1-CO (Plasmodium falciparum, UniProt Q8IDM6).
T2 construct: expressed in transfected cells; host or cells: purine auxotrophic ade2Δ yeast (Saccharomyces cerevisiae)
The experiment in a line: [3H]adenosine uptake into PfENT1-CO expressing ade2Δ yeast. The conditions noted are these: uptake over 15 minutes; Mean ± SD, N ≧ 3.
From the text: FIGS. 4A-C are graphs showing the validation of selected compounds identified as Plasmodium falciparum Equilibrative Nucleoside Transporter Type I (PfENT1) inhibitors in the high-throughput screen (HTS). […] The means values from single experiments are shown. In the key, CQ=chloroquine, and the Table 1 compounds are referenced as symbols indicating HTS rank #1-7, 13, and 19.
as §1

A further assay concerns Dd2 parasite. The assay is described as follows: Plasmodium falciparum parasite viability assay (Dd2). The conditions noted are these: Dd2, high purine media, Mean ± SD.
The target of a further assay is T3, PfENT1 (Plasmodium falciparum, UniProt Q8IDM6).
T3 construct: expressed in transfected cells; host or cells: fui1Δ yeast (Saccharomyces cerevisiae), co-expressing GFP
T3 sequence (Q8IDM6 whole entry): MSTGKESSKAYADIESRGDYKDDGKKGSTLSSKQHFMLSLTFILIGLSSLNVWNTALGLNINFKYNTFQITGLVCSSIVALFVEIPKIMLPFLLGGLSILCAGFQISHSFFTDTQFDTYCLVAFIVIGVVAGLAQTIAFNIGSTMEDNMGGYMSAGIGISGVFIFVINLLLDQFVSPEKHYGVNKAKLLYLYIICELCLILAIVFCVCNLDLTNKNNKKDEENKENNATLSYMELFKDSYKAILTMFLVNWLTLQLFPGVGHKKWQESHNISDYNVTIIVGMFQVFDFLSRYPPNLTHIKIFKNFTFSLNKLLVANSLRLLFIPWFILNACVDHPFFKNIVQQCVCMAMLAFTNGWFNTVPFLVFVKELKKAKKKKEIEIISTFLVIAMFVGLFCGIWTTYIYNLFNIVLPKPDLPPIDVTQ
The settings on record: primary HTS, compounds at 10 μM, 125 μM 5-FUrd. An outline of the steps: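 fui1Δ yeast expressing PfENT1 and GFP were grown with 125 μM 5-fluorouridine, so growth reflects blocked 5-FUrd uptake. Compounds were screened at 10 μM. Growth scored by OD620 turbidity and GFP fluorescence, and hits had to be positive on both.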

Assay [2] relates to P. falciparum parasites (3D7 strain). The assay is described as follows: Plasmodium falciparum cytotoxicity assay (3D7 strain, SYBR-Green). The settings on record: 72-96 hours, Mean ± SD. The method, then:
Plasmodium falciparum Cytotoxicity Assay
P. falciparum parasites (3D7 strain-chloroquine sensitive) are grown in in vitro culture in human erythrocytes. Each well is inoculated with a low density of parasites in standard parasite growth media with supplemented hypoxanthine (10 or 367 μM). Increasing concentrations of drugs are added and parasites are allowed to grow for 72-96 hours in 5% CO2/5% O2/90% N2 gas at 37° C. At the end of the experiment, parasites are lysed, SYBR-Green dye in lysis solution is added and the fluorescence intensity is measured for each well.

[3] abbreviates: 3D7, high purine media (hypoxanthine 367 μM), read-out: IC50 3D7 parasite viability-high purine media.
Setting [4] is: 3D7, low purine media (hypoxanthine 10 μM), read-out: IC50 3D7 parasite viability-low purine media.

Where two headings read alike, the source gives them in different places.

T2 sequence (Q8IDM6 whole entry): as above
T1 sequence (Q8IDM6 whole entry): as above

For the molecule `COc1cc(COc2ccc3c(C)cc(=O)oc3c2)cc(OC)c1OC` [HTS Rank #3, 4-methyl-7-[(3,4,5-trimethoxybenzyl)oxy]-2H-chromen-2-one], the IC50 (in general, the concentration that gives 50% inhibition) stood at 2.3 ± 0.9 µM against PfENT1-HA-CO; 0.0064 ± 0.003 µM in assay [1]; 0.0024 ± 0.0015 µM on PfENT1-CO; 36.2 ± 6 µM with Dd2 parasite; 41 ± 4.3 µM in assay [2] (setting [3]); 19.2 ± 4.3 µM in assay [2] (setting [4]). Besides, the “Avg Normalized % maximal activity” value on PfENT1 worked out at 84.71%.
Consider `O=C(Nc1ccc2nc(NC(=O)c3ccco3)sc2c1)c1ccco1` [compound 1], for which the IC50 stood at 0.8 µM against PfENT1-HA-CO; 0.0054 ± 0.0029 µM in assay [1]; 0.003 ± 0.0013 µM on PfENT1-CO; 25.8 ± 1.3 µM with Dd2 parasite; 37.7 ± 2 µM in assay [2] (setting [3]); 31.1 ± 4.7 µM in assay [2] (setting [4]). Besides, the “Avg Normalized % maximal activity” value at PfENT1 was 97.22%.
`O=C(Nc1ccc(-c2nc3ncccc3o2)cc1)c1ccccc1Br` [compound 2, 2-bromo-N-(4-[1,3]oxazolo [4,5-b]pyridin-2-ylphenyl)benzamide]: the IC50 at PfENT1-HA-CO came to 6 ± 1.7 µM; in assay [1], 0.028 ± 0.0123 µM; at PfENT1-CO it was 0.0101 ± 0.0084 µM; in the assay with Dd2 parasite, 52.4 ± 5.7 µM; in assay [2] (setting [3]), 53.4 ± 11.1 µM; in assay [2] (setting [4]) it was 31.2 ± 7.7 µM. Besides, the “Avg Normalized % maximal activity” value at PfENT1 worked out at 91.94%.
`O=C(Nc1ccc(-c2nnc(-c3ccco3)o2)cc1)c1ccco1` [compound 4, N-{4-[5-(2-furyl)-1,3,4-oxadiazol-2-yl]phenyl}-2-furamide]: the IC50 on PfENT1-HA-CO amounted to 5.7 ± 0.8 µM; in assay [1], 0.0458 ± 0.0241 µM; on PfENT1-CO, 0.0137 ± 0.0075 µM; in the assay on Dd2 parasite it was 15.3 ± 2.7 µM; in assay [2] (setting [3]) it was 14.7 ± 1.9 µM; in assay [2] (setting [4]), 15 ± 1.5 µM. On PfENT1, the “Avg Normalized % maximal activity” value was found to be 74.03%.
Consider `Cn1cc(C(=O)C(=O)Nc2ccc(C(=O)N3CCCC3)cc2)c2ccccc21` [compound 5, 2-(1-methyl-1H-indol-3-yl)-2-oxo-N-[4-(pyrrolidin-1-ylcarbonyl)phenyl]acetamide], for which the IC50 was 6.5 ± 1.5 µM at PfENT1-HA-CO; 0.0386 ± 0.0201 µM in assay [1]; 0.0227 ± 0.0072 µM on PfENT1-CO; 28.9 ± 2.6 µM with Dd2 parasite; 33.1 ± 0.5 µM in assay [2] (setting [3]); 35.5 ± 0.7 µM in assay [2] (setting [4]). The “Avg Normalized % maximal activity” value on PfENT1 is on record as 64.07%.
Take `O=C(Nc1cccc(-c2nc3ncccc3o2)c1)c1cccc(F)c1` [compound 6, 3-fluoro-N-(3-[1,3]oxazolo [4,5-b]pyridin-2-ylphenyl)benzamide]: the IC50 was 5.7 ± 1.3 µM on PfENT1-HA-CO; 0.0198 ± 0.0129 µM in assay [1]; 0.0096 ± 0.0074 µM at PfENT1-CO; 38.8 ± 4.9 µM in the assay on Dd2 parasite; 33.7 ± 5 µM in assay [2] (setting [3]); 34.8 ± 2.4 µM in assay [2] (setting [4]). Also, the “Avg Normalized % maximal activity” value at PfENT1 worked out at 59.06%.
Consider `COc1ccccc1C(=O)Nc1cccc(-c2nc3ncccc3o2)c1` [compound 7, 2-methoxy-N-(3-[1,3]oxazolo [4,5-b]pyridin-2-ylphenyl)benzamide], for which the IC50 was 6.4 ± 0.9 µM on PfENT1-HA-CO; 0.0248 ± 0.0174 µM in assay [1]; 0.0109 ± 0.0068 µM at PfENT1-CO; 31 ± 0.6 µM with Dd2 parasite; 44.8 ± 3.8 µM in assay [2] (setting [3]); 43.6 ± 4.4 µM in assay [2] (setting [4]). Further, on PfENT1, the “Avg Normalized % maximal activity” value stood at 55.05%.
Regarding `Cc1ccccc1/C=C/c1nc2ccccc2c(=O)[nH]1` [compound 13, 2-[2-(2-methylphenyl)vinyl]-4(3H)-quinazolinone], the IC50 against PfENT1-HA-CO stood at 4.7 ± 2.9 µM; in assay [1], 0.0216 ± 0.0142 µM; with Dd2 parasite it was 2.6 ± 0.2 µM; in assay [2] (setting [3]), 6.7 ± 0.5 µM; in assay [2] (setting [4]) it was 6.9 ± 0.4 µM. The “Avg Normalized % maximal activity” value at PfENT1 stood at 24.69%.
Regarding `O=C(Nc1ccc(Cl)c(-c2nc3ncccc3o2)c1)c1cccs1` [compound 19, N-(4-chloro-3-[1,3]oxazolo [4,5-b]pyridin-2-ylphenyl)-2-thiophenecarboxamide], the IC50 against PfENT1-HA-CO was found to be 5.4 ± 0.8 µM; in assay [1], 0.0179 ± 0.0127 µM; on PfENT1-CO, 0.0384 ± 0.0165 µM; with Dd2 parasite, 37.4 ± 1.6 µM; in assay [2] (setting [3]) it was 42.9 ± 2.8 µM; in assay [2] (setting [4]), 43.2 ± 2.9 µM. Besides, at PfENT1, the “Avg Normalized % maximal activity” value is listed as 21.24%.
